Entries after “also recorded” stand apart in the source; their conditions may differ.
How the values were obtained:
Plasma-Glucose = conditions: Kaninchen, Glucosebolus 500 mg/kg i.v.; 5 ng/kg i.v.; after 70 - 90 Minuten; Verum-Gruppe vs Placebo-Gruppe
Experimental: Der Einfluß auf den Blutzucker. wurde zunächst an Kaninchen überprüft. Kaninchen wurden zur Hemmung des endogen Glucagons mit einem Glucosebolus versehen.
Je 3 wachen Kaninchen gab man einen Glucosebolus (500 mg/ kg i.v.). […] Nach 10, 30, 40, 50, 60, 70, 80 und 90 Minuten wurde Blut abgenommen und daraus die Blutglucose bestimmt.
Bei den einzelnen Meßpunkten ist jeweils graphisch die Standardabweichung des Meßwertes angegeben (n ist jeweils 3).

Parathormon = test: Plasma levels of parathormone and Ca2+ in Ca2+-infused anaesthetised rats after i.v. injection; format: in vivo, Wistarratten; conditions: for Stimulierung des PTH: Ratten
Text: (§1) In Ratten wurde durch eine Ca^2+-Gluconat-Infusion der Plasma-Ca^2+-Spiegel erhöht. Durch diese Infusion wird der PTH-Spiegel suppremiert (The New England J. Med. 307, 1982, S. 226 - 228). Eine Bolusinjektion der Gonadoliberinagonisten erhöhte jedoch signifikant den PTH-Spiegel gegenüber den Kontrollen und potenzierte das Plasma-Ca^2+. Das 30 Minuten nach der Injektion der Gonadoliberinagonisten erhöhte PTH bewirkte nach 60 Minuten einen signifikanten Serum-Ca^2+-Anstieg. Daß diese Beeinflußung des Plasma-Ca^2+-Spiegels durch endogenes PTH oder PTH selbst einen Einfluß auf den Blutdruck hat, wurde an einer Frau mit zu hohem Blutdruck überprüft. Nach einmaliger intranasaler Gabe von 100 mcg Gonadoliberin, was bei einer Resorptionsrate von 2 - 5 % also nur etwa 2 - 5 mcg resorbierten Gonadoliberins entspricht, konnte der erhöhte Blutdruck 8 Stunden lang stark gesenkt werden.
Zwei Gruppen von je 31 Wistarratten wurden mit Pentobarbital (45 mg/kg i.p.) narkotisiert. Man entnahm von allen Tieren eine Blutprobe (Ausgangswert). […] Nach 30, 60, 90, 120 und 180 Minuten wurde ein Teil der Tiere getötet und entblutet. Das Blutserum wurde auf Ca^2+ und Parathormon untersucht.
In beiden-Figuren ist bei den einzelnen Meßpunkten die Anzahl n der Messungen sowie die Standardabweichung des Meßwertes (graphisch) angegeben.

[1] = Blood pressure lowering in a hypertensive person after intranasal dosing; format: in vivo, Mensch; conditions: for systolischer Blutdruck: hypertensive person, 100 µg intranasal, baseline etwa 150 mm Hg
Text: as §1
Eine hypertensive, 48 Jahre alte Frau, deren Bluthochdruck mit ß-Blockern behandelt wird, setzte ihre Be-.handlung am Versuchstag aus. Versuchsbeginn: 17.00 Uhr.
Der systolische Blutdruck von etwa 150 mm Hg sank nach intranasaler Gabe von 100 µg Gonadoliberin innerhalb von 30 Minuten auf etwa 125 mm Hg, blieb 90 Minuten bei 125 mm Hg und stieg dann für die nächsten 4 Stunden auf 130 mm Hg. Nach einer 8-stündigen Bettruhe, während der die Versuchsperson ausgezeichnet schlief, war der Blutdruck auf etwa 137 mm Hg gestiegen.

[2] = Intranasal absorption of Gonadoliberin; format: in vivo, Mensch; conditions: intranasal dose of 100 mcg, calculated from the Resorptionsrate
[3] = Treatment of muscle pain (McArdle-Erkrankung) in a person, intranasal dosing; format: in vivo, Mensch
Text: […] mit starken Muskelschmerzen am Oberarm (McArdle-Erkrankung) gab man 100 mcg Gonadoliberin intra- nasal. Die starken Dauerschmerzen verschwanden nach etwa 15 Minuten. Am Anfang der Behandlung wurde mehrmals täglich (3 mal), später 2 mal und dann nur noch einmal täglich appliziert um einer Tachyphylaxie vorzubeugen. […] Der anfangs sehr schwache Blutdruck der Patientin von 90/60 wurde interessanterweise nicht weiter gesenkt, sondern leicht erhöht, so daß er sich während der Therapie auf 110/65 einpendelte. Diese kleinen Gonadoliberindosen wirken also nicht generell blutdrucksenkend ', sondern können auch bei niedrigem Blutdruck blutdruckerhöhend wirken.
Eine Frau, 46 Jahre alt, hatte starke Schmerzen im Oberarm. Der Arm konnte nicht vom Körper weg bewegt werden. Nach einer intranasalen Applikation von 100 µg Gonadoliberin war der Dauerschmerz in Ruhehaltung verschwunden. Der sehr schwache Blutdruck von 90/60 stieg während der Behandlung mit Gonadoliberin auf 110/65. Am ersten Tag wurde insgesamt 3 mal, am zweiten und dritten Tag 2 mal und am vierten und folgenden Tagen nur noch einmal täglich am Morgen therapiert. Im Lauf der Therapie wurden auch die Bewegungsschmerzen weniger und der Arm konnte wieder normal bewegt werden.

[4] = je nach Test; literature (Vitamins and Hormons 38, 1980; J. Med. Chem. 25, 1982); cited from earlier work
[5] = person with high blood pressure, single intranasal dose of 100 mcg

Compound: [D-Ser(Bu^t) ^6] Gonadoliberin-(1-9)-nonapeptid-ethylamid [Buserelin]
- Blutglucosewerte (Plasma-Glucose): signifikant erhöht
- Stimulierung des PTH (Parathormon; dose 5 ng/kg): stimulieren
- Parathormon im Blutserum (Parathormon; Wistarratten, Ca2+-Infusion 30 mg/kg/h, 5 ng/kg i.v., after 30 Minuten, Verum-Gruppe vs Placebogruppe): signifikant an
- Ca^2+-Spiegel im Blutserum (Parathormon; Wistarratten, Ca2+-Infusion 30 mg/kg/h, 5 ng/kg i.v., after 60 Minuten, Verum-Gruppe vs Placebogruppe): deutlich erhöht

Compound: CC(C)C[C@H](NC(=O)CNC(=O)[C@H](Cc1ccc(O)cc1)NC(=O)[C@H](CO)NC(=O)[C@H](Cc1c[nH]c2ccccc12)NC(=O)[C@H](Cc1cnc[nH]1)NC(=O)[C@@H]1CCC(=O)N1)C(=O)N[C@@H](CCCNC(=N)N)C(=O)N1CCC[C@H]1C(=O)NCC(N)=O [Gonadoliberin]
- systolischer Blutdruck ([1]; after a subsequent 8-hour bed rest): ~137 mm Hg
- systolischer Blutdruck ([1]; maintained for 90 Minuten after the fall): 125 mm Hg
- systolischer Blutdruck ([1]; the following 4 Stunden): 130 mm Hg
- systolischer Blutdruck ([1]; within 30 Minuten): ~125 mm Hg
- duration of blood pressure lowering [1, 5]: 8 Stunden
- erhöhter Blutdruck [1, 5]: stark gesenkt
- Stimulierung des PTH (Parathormon; dose 50 ng/kg): stimulieren
- resorbiertes Gonadoliberin [2]: 2 to 5 µg
- time until the starke Dauerschmerzen disappeared ([3]; person with muscle pain in the upper arm (McArdle-Erkrankung), 100 mcg intranasal): ~15 Minuten
- Bewegungsschmerzen / movement of the arm ([3]; person with muscle pain, 100 µg intranasal 3 to 1 times daily, in the course of therapy): ohne Schmerzen bewegt; also recorded: weniger
- Blutdruck ([3]; person with muscle pain, 100 µg intranasal, during therapy, baseline 90/60): 110/65
- Dauerschmerz in Ruhehaltung ([3]; person, upper arm pain, 100 µg intranasal): verschwunden

Compound: CC(C)C[C@H](NC(=O)[C@@H](Cc1ccc2ccccc2c1)NC(=O)[C@H](Cc1ccc(O)cc1)NC(=O)[C@H](CO)NC(=O)[C@H](Cc1c[nH]c2ccccc12)NC(=O)[C@H](Cc1cnc[nH]1)NC(=O)[C@@H]1CCC(=O)N1)C(=O)N[C@@H](CCCNC(=N)N)C(=O)N1CCC[C@H]1C(=O)NCC(N)=O [[D-3-(2-Naphthyl)-Ala^6] Gonadoliberin]
- Wirkung relative to Gonadoliberin (mal stärker) [4]: noch höhere Aktivitäten

Compound: Cc1cc(C)c(C[C@@H](NC(=O)[C@H](Cc2ccc(O)cc2)NC(=O)[C@H](CO)NC(=O)[C@H](Cc2c[nH]c3ccccc23)NC(=O)[C@H](Cc2cnc[nH]2)NC(=O)[C@@H]2CCC(=O)N2)C(=O)N[C@@H](CC(C)C)C(=O)N[C@@H](CCCNC(=N)N)C(=O)N2CCC[C@H]2C(=O)NCC(N)=O)c(C)c1 [[D-3-(2.4.6.Trimethylphenyl)-Ala^6]-Gonadoliberin]
- Wirkung relative to Gonadoliberin (mal stärker) [4]: noch höhere Aktivitäten

— EP0137294A2, “Gonadoliberin and gonadoliberin agonists in the treatment of metabolic diseases due to too small a parathormone level” (HOECHST AKTIENGESELLSCHAFT, priority 1983, dated 1985)
